Results from patent publication US8168645B2, “Arylsulfonamide compounds” (Genentech, Inc., priority 2006, dated 2012).
pIC50: −log10 of the molar value.

Legend:
[1] = system: mouse embryo fibroblasts (MEFs): wild type, Bax/Bak double knockout, Noxa-expressing, Bad-expressing; test: Cell viability assay on mouse embryo fibroblasts (propidium iodide uptake); type: cell-based; conditions: propidium iodide uptake after 24 hours, FIG. 1A/1B
Experimental: FIG. 1 graphically depicts the effect of Compound 1 (FIG. 1A) and Etoposide (FIG. 1B), at increasing concentrations, on the % viability of certain mouse embryo fibroblast (MEF) cells as assessed by propidium iodide uptake after 24 hours. Noxa and Bad were introduced by retrovirally infecting the cells with pMIG retroviruses as described by Chen et al., 2005.
The efficacy of the compounds of the present invention can also be determined in cell based killing assays using a variety of cell lines and mouse tumor models. For example, their activity on cell viability can be assessed on a panel of cultured tumorigenic and non-tumorigenic cell lines, as well as primary mouse or human cell populations, e.g. lymphocytes. For these assays, 5,000-20,000 cells are cultured at 37° C. and 10% CO2 in appropriate growth media, eg: 100 μL Dulbecco's Modified Eagle's medium supplemented with 10% foetal calf serum, asparaginase and 2-mercaptoethanol in the case of pre-B Eμ-Myc mouse tumors in 96 well plates. […] Cell viability is determined by the ability of the cells to exclude propidium iodide (10 μg/mL by immunofluorescence analysis of emission wavelengths of 660-675 nm on a flow cytometer (BD FACScan). Alternatively, a high throughput calorimetric assay such as the Cell Titre 96 could be used. Aqueous Non-Radioactive Cell Proliferation Assay (Promega) may be used. Cell death by apoptosis is confirmed by pre-incubation of the cells with 50 μM of a caspase inhibitor such as zVAD-fmk.
Neutralisation of both Bcl-xL and Mcl-1 anti-apoptotic proteins in normal cells is required before a cell undergoes apoptosis via the downstream Bax/Bak pathway [Chen et al., 2005; Willis et al., 2005]. A compound that only targets Bcl-xL should not affect normal cells, but could kill certain cancer cells if they rely more on Bcl-xL and less on Mcl-1 for survival. To mirror this, compound 1 was tested for its effect on survival of wild type (wt) mouse embryo fibroblasts (MEFs), Bax/Bak double knockout (BB DKO) MEFs, MEFs that expressed Noxa, and MEFs that expressed Bad. Noxa specifically neutralizes Mcl-1.

GST tagged Mcl-1 protein = GST tagged Mcl-1 protein (Homo sapiens, UniProt Q07820); test: Alphascreen competition binding assay, GST tagged Mcl-1 vs biotinylated Bak BH3 peptide; conditions: competition with Bak BH3 peptide; unit inferred
Sequence of GST tagged Mcl-1 protein (Q07820 whole entry): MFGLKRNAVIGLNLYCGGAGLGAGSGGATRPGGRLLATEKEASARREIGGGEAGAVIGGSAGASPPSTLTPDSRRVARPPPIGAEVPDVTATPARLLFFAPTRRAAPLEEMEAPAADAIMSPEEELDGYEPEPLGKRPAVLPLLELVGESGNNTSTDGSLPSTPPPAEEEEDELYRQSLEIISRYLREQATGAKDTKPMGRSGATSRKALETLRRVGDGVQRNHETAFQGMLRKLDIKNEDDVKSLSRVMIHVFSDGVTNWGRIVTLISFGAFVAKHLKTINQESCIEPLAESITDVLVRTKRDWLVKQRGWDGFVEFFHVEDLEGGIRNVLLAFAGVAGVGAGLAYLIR
Description: (§1) Measurement of competition of compounds of the invention with Bim26-mer for a Bcl-2 homologue binding site.
(§2) Alphascreen (Amplified Luminescent Proximity Homogenous Assay) is a bead based technology which measures the interaction between molecules. The assay consists of two hydrogel coated beads which, when bought into close proximity by a binding interaction, allow the transfer of singlet oxygen from a donor bead to an acceptor bead.
(§3) Upon binding and excitation with laser light at 680 nm, a photosensitizer in the donor bead converts ambient oxygen to a more excited singlet state. This singlet oxygen then diffuses across to react with a chemiluminescer in the acceptor bead. Fluorophores within the same bead are activated resulting in the emission of light at 580-620 nm.
(§4) Screening of the compounds of the invention was performed using the Alphascreen GST (glutathione s-transferase) detection kit system. Test compounds were titrated into the assay which consisted of GST tagged Bclw ΔC29 protein (0.05 nM Final concentration) and Biotinylated Bim BH3-26 peptide, Biotin-[…] (3.0 nM Final concentration). For the GST tagged BCl-xL assay, GST tagged BCl-xL ΔC25 protein (0.6 nM Final concentration) and Biotinylated Bim BH3-26 peptide, Biotin-[…] (5.0 nM final concentration) were used. To this reaction mix anti-GST coated acceptor beads and Streptavidin coated donor beads, both at 15 μg/ml Final concentration, were added and the assay mixture incubated for 4 hours at room temperature before reading. Similarly when the Bcl-2 protein was Mcl-1, GST tagged Mcl-1 protein (0.4 nM Final concentration) and Biotinylated Bak BH3 peptide, Biotin-[…]-OH (4.0 nM Final concentration) were used.
(§5) • 1) prepare a 384 well with 4.75 μL of buffer and 0.25 μL of compounds (20 mM in DMSO) per well. • 2) Mix the binding partners, in one tube add Bcl-w, BCl-xL or Mcl-1 and the acceptor beads, in the second tube add Biotinylated BH3 peptide and the donor beads. • 3) Pre-incubate the two pairs of binding partners for 30 minutes. • 4) Add 1 μL of acceptor beads:Bcl-w, BCl-xL or Mcl-1 protein mix to each well. • 5) Seal the plate and incubate at room temperature for 30 minutes. • 6) Add 10 μL of donor bead:BH3 peptide mix to each well. • 7) Seal the plate, cover with foil and incubate for 4 hours.
(§6) Assay buffer contained 50 mM Hepes pH 7.4, 10 mM DTT, 100 mM NaCl, 0.05% Tween and 0.1 mg/ml casein. Bead dilution buffer contained 50 mM Tris, pH 7.5, 0.01% Tween and 0.1 mg/ml casein. The final DMSO concentration in the assay was 0.5%. Assays were performed in 384 well white Optiplates and analyzed on the PerkinElmer Fusion alpha plate reader (Ex680, Em520-620 nM).
(§7) The GST Alphascreen detection kit and Optiplates were purchased from PerkinElmer.

SCLC cell line NCI-H146 = test: CellTitre-Glow luminescent cytotoxicity assay, NCI-H146; type: cell-based; conditions: Homo sapiens; NCI-H146 cells, 48 hr incubation
Experimental: (§8) • 1. SCLC cell lines NCI-H889, NCI-H1963, and NCI-H146 were purchased from American Type Culture Collection. Cells were maintained in RPMI 1640 (Invitrogen Corp., Grand Island, N.Y.) supplemented with 10% fetal bovine serum (FBS, Invitrogen), 1% sodium pyruvate, 25 mM HEPES, 4.5 g/L glucose and 1% penicillin/streptomycin (Sigma) in a humidified chamber at 37° C. containing 5% CO2. • 2. cells were grown as suspension aggregates in a T162 flask with 25 ml medium and kept at concentration of 1 million/mL. Test Compound Stocks: • 1. test compounds were prepared as 10 mM stocks in DMSO and stored at −20° C. Test Compound Serial Dilutions: • 1. prewarmed medium to 37° C. • 2. thawed compounds to room temperature. • 3. determined what will be the highest concentration to be tested. (i.e. 10 μM). • 4. prepared a 2× stock in culture medium of the first dose (i.e. 2×10 μM=20 μM) in an Eppendorf tube (i.e. 4 μl of 5 mM stock into 1000 μl=20 μM). • 5. inverted tube several times to mix. […] Columns 1-10 comprised the serial test compound treatments, column 11 was the untreated control and column 12 was the ‘no cell’ control for determining the background. • 1. in a 96 well plate was added 50 μl medium/well in columns 2 thru 11 and 100 μl was added to column 12. • 2. in column 1 was added 100 μl of 2× compound. • 3. made serial dilutions by transferring 50 μl to column 2, and so on up to column 10. After adding 50 μl to column 10 and mixing, discarded 50 μl. • 4. stored plates at 37° C. until ready to add cells. Cell Preparation • 1. Cell were washed one time in the culture medium and prepared as a suspension. • a. cell were first spun down to remove the medium and then ˜1 ml 0.25% trypsin was added and gently mixed and incubated for no more than three minutes at room temperature. • b. ˜10 ml of the medium was added and the cells were gently pipetted several times. • c. cells were then counted and spun down to the volume necessary for the total cell number needed, then resuspended in the medium to 200 cells/μl concentration (50,000 cells/well). • 2. […]

SCLC cell line NCI-H1963 = test: CellTitre-Glow luminescent cytotoxicity assay, NCI-H1963; type: cell-based; conditions: Homo sapiens; NCI-H1963 cells, 48 hr incubation
Experimental: as §8

[2] = molecular target: GST tagged BCl-xL ΔC25 protein (Homo sapiens, UniProt Q07817); test: Alphascreen competition binding assay, GST tagged Bcl-xL vs biotinylated Bim BH3-26 peptide; conditions: competition with Bim BH3-26 peptide; unit inferred
Sequence of GST tagged BCl-xL ΔC25 protein (Q07817 1-208 limits assumed): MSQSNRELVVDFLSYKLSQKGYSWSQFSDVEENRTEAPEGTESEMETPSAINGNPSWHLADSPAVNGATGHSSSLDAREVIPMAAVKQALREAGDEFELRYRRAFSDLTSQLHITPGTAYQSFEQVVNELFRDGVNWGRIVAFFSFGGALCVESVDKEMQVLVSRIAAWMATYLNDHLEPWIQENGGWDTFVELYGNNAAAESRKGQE
Description: as §1, §2, §3, §4, §5, §6, §7

SCLC cell line NCI-H889 = test: CellTitre-Glow luminescent cytotoxicity assay, NCI-H889; type: cell-based; conditions: Homo sapiens; NCI-H889 cells, 48 hr incubation
Experimental: as §8

- pIC50 (GST tagged Mcl-1 protein): 5.05
- pIC50 [2]: 8.15
SMILES: CN(C)CC[C@H](CSc1ccccc1)Nc1ccc(S(=O)(=O)Nc2ncnc3cc(N4CCN(Cc5ccccc5-c5ccc(Cl)cc5)CC4)ccc23)cc1[N+](=O)[O-] [Compound 1, N-{7-[4-(4′-Chloro-biphenyl-2-ylmethyl)-piperazin-1-yl]-quinazolin-4-yl}-4-((R)-3-dimethylamino-1-phenylsulfanylmethyl-propylamino)-3-nitro-benzenesulfonamide]
- Selectivity of killing of Noxa-expressing MEFs versus MEFs where both Bcl-xL and Mcl-1 are protective (% viability) [1]: much more sensitive to killing
- EC50 (SCLC cell line NCI-H146): 0.61 µM
- EC50 (SCLC cell line NCI-H1963): 0.17 µM
- EC50 (SCLC cell line NCI-H889): 0.21 µM
